Assay results taken from patent US20230027066A1 (Urovant Sciences GmbH, priority 2019, published 2023).
Read-outs that look alike come from different tables or passages of the source.

Tests used:
[1] = system: men and women with overactive bladder; experiment: extension study, OAB-q LF coping subscore at Week 52; assay type: in vivo, human; settings: for OAB-q LF Coping Subscore, Week 52 Mean: Full Analysis Set Extension; for OAB-q LF Coping Subscore, Change from Baseline Mean at Week 52: baseline from parent study
[2] = 40-week extension study (52 weeks), adverse events
From the text: Approximately 500 men and women with overactive bladder who completed 12 weeks in the parent study were permitted to enroll, at approximately 110 study sites in the U.S.
Secondary endpoints were evaluation of CFB at Week 52 in average number of micturitions, Urge Urinary Incontinence (UUI) episodes, urgency episodes, and total urinary incontinence episodes. All CFB calculations used the parent study Baseline value.

[3] = From the text: A placebo group was included in the main study, and a group that received tolterodine monotherapy was included in the main study and in the extension.
[4] = system: men and women with OAB; experiment: Phase 2b study of vibegron in OAB, Part 1, efficacy at Week 8 (voiding diary); assay type: in vivo, human
From the text: Part 2 was designed to continue to assess the safety and efficacy of concomitant dosing. […] Subjects in both Part 1 and Part 2 had the option of enrolling in a 1-year extension. Participants were required to keep a voiding diary, recording the occurrence of each strong urge, total incontinence, and urge incontinence episode. Efficacy data for Part 1 and Part 2 are summarized herein.
The total number of urgency incontinence episodes must have exceeded the total number of stress incontinence episodes for all subjects.

[5] = Phase 3 study (75 mg), heart rate and blood pressure changes; assay type: in vivo, human
From the text: Study assessments of safety included adverse events, physical examinations, vital signs (and weight), and clinical laboratory tests
Categorical changes are based on 3 consecutive post-baseline visits and patients are counted in all applicable categories (e.g., if a patient has a 12 unit increase then that patient is counted in both ≥5 and ≥10 unit columns).
Blood Pressure assessments are taken in triplicate and averaged at each visit.

[6] = vibegron 3 mg, OAB Wet subjects
[7] = vibegron 15 mg, OAB Wet subjects
[8] = vibegron 50 mg, OAB Wet subjects
[9] = vibegron 100 mg, OAB Wet subjects
[10] = 3 consecutive post-baseline visits

## O=C(Nc1ccc(C[C@@H]2CC[C@H]([C@H](O)c3ccccc3)N2)cc1)[C@@H]1CCc2nccc(=O)n21 [Vibegron, (6S)-N-[4-[[(2S,5R)−5-[(R)-hydroxy(phenyl)methyl]pyrrolidin−2-yl]methyl]phenyl]−4-oxo−7,8-dihydro−6H-pyrrolo[1,2-a]pyrimidine−6-carboxamide]
[1]; 40-Week treatment group
  OAB-q LF Coping Subscore, Week 52 Mean: 86.3
  OAB-q LF Coping Subscore, Change from Baseline Mean at Week 52: 28.3
[1]; 52-Week treatment group
  OAB-q LF Coping Subscore, Week 52 Mean: 83.6
  OAB-q LF Coping Subscore, Change from Baseline Mean at Week 52: 27.1
[2]; 40-Weeks arm
  Discontinued the study: Death: 1 (1.1) n (%)
[2]; 52-Weeks arm
  Discontinued the study: Death: 0 n (%)
[2]; Overall groups
  SAEs resulting in death (not considered related by Investigator or Sponsor): 1 (0.4) n (%)
[2]; Overall groups, Randomized Set Extension
  Discontinued the study: Death: 1 (0.4) n (%)
[2]; both, human, in vivo
  Discontinued the study: Adverse Event: 4 (1.5) n (%)
  Patients with at least one treatment-emergent adverse event: 171 (62.6) n (%)
  Patients with at least one treatment-emergent serious AE: 9 (3.3) n (%)
  SAEs considered treatment-related by the investigator: 1 (0.4) n (%)
  SAEs: Hospitalization: 7 (2.6) n (%)
  SAEs: Other serious criteria: 1 (0.4) n (%)
[2]; both, human, in vivo, 40 weeks
  Discontinued the study: Adverse Event: 1 (1.1) n (%)
[2]; both, human, in vivo, 52 weeks
  AE leading to discontinuation of study drug: Acute prerenal failure: 0 n (%)
  AE leading to discontinuation of study drug: Amnesia: 1 (0.4) n (%)
  AE leading to discontinuation of study drug: Any: 4 (1.5) n (%)
  AE leading to discontinuation of study drug: Aortic stenosis: 0 n (%)
  AE leading to discontinuation of study drug: Atrial fibrillation: 0 n (%)
  AE leading to discontinuation of study drug: Blood creatinine increased: 1 (0.4) n (%)
  AE leading to discontinuation of study drug: Blood urea increased: 1 (0.4) n (%)
  AE leading to discontinuation of study drug: Cardiac failure: 0 n (%)
  AE leading to discontinuation of study drug: Cardiomyopathy: 0 n (%)
  AE leading to discontinuation of study drug: Chronic kidney disease: 0 n (%)
  AE leading to discontinuation of study drug: Constipation: 1 (0.4) n (%)
  AE leading to discontinuation of study drug: Diarrhea: 1 (0.4) n (%)
  AE leading to discontinuation of study drug: Dizziness: 0 n (%)
  AE leading to discontinuation of study drug: Dry eye: 0 n (%)
  AE leading to discontinuation of study drug: Dyspnoea: 0 n (%)
  AE leading to discontinuation of study drug: Haematuria: 0 n (%)
  AE leading to discontinuation of study drug: Headache: 0 n (%)
  AE leading to discontinuation of study drug: Intervertebral disc degeneration: 0 n (%)
  AE leading to discontinuation of study drug: Mitral valve incompetence: 0 n (%)
  AE leading to discontinuation of study drug: Osteoarthritis: 0 n (%)
  AE leading to discontinuation of study drug: Pulmonary embolism: 0 n (%)
  AE leading to discontinuation of study drug: Sinus tachycardia: 0 n (%)
  AE leading to discontinuation of study drug: Tricuspid valve incompetence: 0 n (%)
  AE: Anaemia: 7 (2.6) n (%)
  AE: Atrial fibrillation: 0 n (%)
  AE: Back pain: 6 (2.2) n (%)
  AE: Blood pressure increased: 2 (0.7) n (%)
  AE: Bronchitis: 8 (2.9) n (%)
  AE: Constipation: 10 (3.7) n (%)
  AE: Diarrhea: 13 (4.8) n (%)
  AE: Dizziness: 4 (1.5) n (%)
  AE: Dry mouth: 5 (1.8) n (%)
  AE: Fatigue: 3 (1.1) n (%)
  AE: Headache: 15 (5.5) n (%)
  AE: Hyperglycemia: 7 (2.6) n (%)
  AE: Hypertension: 24 (8.8) n (%)
  AE: Hypotension: 0 n (%)
  AE: Musculoskeletal pain: 6 (2.2) n (%)
  AE: Nasopharyngitis: 13 (4.8) n (%)
  AE: Nausea: 10 (3.7) n (%)
  AE: Residual urine volume increased: 7 (2.6) n (%)
  AE: Syncope: 0 n (%)
  AE: Tachycardia (Sinus Tachycardia): 1 (0.4) n (%)
  AE: Upper respiratory tract infection: 10 (3.7) n (%)
  AE: Urinary retention: 3 (1.1) n (%)
  AE: Urinary tract infection: 18 (6.6) n (%)
  Discontinued the study: Adverse Event: 3 (1.6) n (%)
[3]; human, in vivo
  frequency of injuries: 0.9%
[3]; vibegron 3 mg
  Accidental overdose: 3 (2.1) n (%)
[3]; vibegron 15 mg
  Accidental overdose: 6 (4.5) n (%)
[3]; vibegron 50 mg
  Accidental overdose: 4 (2.7) n (%)
[3]; vibegron 100 mg
  Accidental overdose: 11 (4.2) n (%)
[4]; vibegron 3 mg
  Micturitions: adjusted difference from placebo at Week 8, difference in LS means (MMRM): −0.5
  Micturitions: difference from placebo at Week 8, difference in LS means (cLDA): −0.46
  Urgency episodes: adjusted difference from placebo at Week 8, difference in LS means (MMRM): −0.2
  Urgency episodes: difference from placebo at Week 8, difference in LS means (cLDA): −0.18
[4]; [6]
  Total incontinence episodes: adjusted difference from placebo at Week 8, difference in LS means (MMRM): −0.1
  Total incontinence episodes: difference from placebo at Week 8, difference in LS means (cLDA): −0.18
  Urgency incontinence episodes: adjusted difference from placebo at Week 8, difference in LS means (MMRM): −0.2
  Urgency incontinence episodes: difference from placebo at Week 8, difference in LS means (cLDA): −0.28
[4]; vibegron 15 mg
  Micturitions: adjusted difference from placebo at Week 8, difference in LS means (MMRM): −0.5
  Micturitions: difference from placebo at Week 8, difference in LS means (cLDA): −0.45
  Urgency episodes: adjusted difference from placebo at Week 8, difference in LS means (MMRM): −0.7
  Urgency episodes: difference from placebo at Week 8, difference in LS means (cLDA): −0.67
[4]; [7]
  Total incontinence episodes: adjusted difference from placebo at Week 8, difference in LS means (MMRM): −0.4
  Total incontinence episodes: difference from placebo at Week 8, difference in LS means (cLDA): −0.48
  Urgency incontinence episodes: adjusted difference from placebo at Week 8, difference in LS means (MMRM): −0.6
  Urgency incontinence episodes: difference from placebo at Week 8, difference in LS means (cLDA): −0.57
[4]; vibegron 50 mg
  Micturitions: adjusted difference from placebo at Week 8, difference in LS means (MMRM): −0.7
  Micturitions: difference from placebo at Week 8, difference in LS means (cLDA): −0.64
  Urgency episodes: adjusted difference from placebo at Week 8, difference in LS means (MMRM): −0.8
  Urgency episodes: difference from placebo at Week 8, difference in LS means (cLDA): −0.76
[4]; [8]
  Total incontinence episodes: adjusted difference from placebo at Week 8, difference in LS means (MMRM): −0.5
  Total incontinence episodes: difference from placebo at Week 8, difference in LS means (cLDA): −0.60
  Urgency incontinence episodes: adjusted difference from placebo at Week 8, difference in LS means (MMRM): −0.7
  Urgency incontinence episodes: change from baseline at Week 8, mean: −1.90
  Urgency incontinence episodes: daily number of events, Week 8 mean: 0.86
  Urgency incontinence episodes: difference from placebo at Week 8, difference in LS means (cLDA): −0.72
[4]; vibegron 100 mg
  Micturitions: adjusted difference from placebo at Week 8, difference in LS means (MMRM): −0.9
  Micturitions: difference from placebo at Week 8, difference in LS means (cLDA): −0.91
  Urgency episodes: adjusted difference from placebo at Week 8, difference in LS means (MMRM): −1.3
[4]; vibegron 100 mg vs 50 mg
  Micturitions, change from baseline at week 8, difference in LS means 100 mg − 50 mg: −0.27
  Total incontinence episodes, change from baseline at week 8, difference in LS means 100 mg − 50 mg: 0.02
  Urgency episodes, change from baseline at week 8, difference in LS means 100 mg − 50 mg: −0.48
  Urgency incontinence episodes, change from baseline at week 8, difference in LS means 100 mg − 50 mg: 0.01
[4]; [9]
  Total incontinence episodes: adjusted difference from placebo at Week 8, difference in LS means (MMRM): −0.6
  Total incontinence episodes: difference from placebo at Week 8, difference in LS means (cLDA): −0.58
  Urgency incontinence episodes: adjusted difference from placebo at Week 8, difference in LS means (MMRM): −0.7
  Urgency incontinence episodes: daily number of events, Week 8 mean: 0.84
  Urgency incontinence episodes: difference from placebo at Week 8, difference in LS means (cLDA): −0.71
[5]; [10]
  Diastolic BP categorical change from baseline ≥5 mm Hg, patients: 7.0%
  Diastolic BP categorical change from baseline ≥10 mm Hg, patients: 1.3%
  Diastolic BP categorical change from baseline ≥15 mm Hg, patients: 0.2%
  Heart Rate categorical change from baseline ≥5 bpm, patients: 8.6%
  Heart Rate categorical change from baseline ≥10 bpm, patients: 1.8%
  Heart Rate categorical change from baseline ≥15 bpm, patients: 0.4%
  Systolic BP categorical change from baseline ≥5 mm Hg, patients: 11.2%
  Systolic BP categorical change from baseline ≥10 mm Hg, patients: 4.2%
  Systolic BP categorical change from baseline ≥15 mm Hg, patients: 1.3%
[5]; Hypertensive at baseline
  Diastolic BP, 12-week change (95% CI): −3.2 (−6.3, −0.1) mm Hg
  Heart Rate, 12-week change: +2.2 beats/minute
  Systolic BP, 12-week change (95% CI): −9.1 (−13.8, −4.4) mm Hg
[5]; Normotensive at baseline
  Diastolic BP, 12-week change (95% CI): +0.5 (−0.2, +1.1) mm Hg
  Heart Rate, 12-week change: +0.4 beats/minute
  Systolic BP, 12-week change (95% CI): +1.0(0, +2.0) mm Hg
[5]; Week 12, all patients
  Diastolic BP, Mean Change from Baseline at Week 12 (SD): 0.2 (7.43) mm Hg
  Heart Rate, Mean Change from Baseline at Week 12: 0.5 beats/minute
  Systolic BP, Mean Change from Baseline at Week 12: 0.2 mm Hg
